# Source: ChEMBL document CHEMBL1240514, “Design and synthesis of potent "sulfur-free" transition state analogue inhibitors of 5'-methylthioadenosine nucleosidase and 5'-methylthioadenosine phosphorylase” (J Med Chem, 2010)
# The source made the active and inactive calls. The rule behind the calls is not given here.
# Target: T1, S-methyl-5'-thioadenosine phosphorylase (Homo sapiens) (UniProt Q13126)
# T1 sequence (whole entry): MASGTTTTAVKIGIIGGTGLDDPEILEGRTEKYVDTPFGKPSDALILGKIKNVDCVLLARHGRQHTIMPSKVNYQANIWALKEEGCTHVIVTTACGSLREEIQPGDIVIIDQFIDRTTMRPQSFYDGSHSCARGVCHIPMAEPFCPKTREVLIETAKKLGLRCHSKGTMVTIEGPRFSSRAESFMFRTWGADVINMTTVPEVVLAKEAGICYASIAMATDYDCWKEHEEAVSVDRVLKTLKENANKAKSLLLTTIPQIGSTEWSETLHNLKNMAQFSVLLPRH
# Experiment: Inhibition of His-tagged human MTAP at 2.5 uM
row,Compound,inhibition
1,Nc1ncnc2c(CN3C[C@H](c4cn(Cc5ccccc5)nn4)[C@@H](O)C3)c[nH]c12 (racemic),inactive

# Target: T2, S-methyl-5'-thioadenosine phosphorylase (Homo sapiens, UniProt Q13126)
# T2 sequence (Q13126 whole entry): T1 sequence (whole entry)
# Experiment: Inhibition of His-tagged human MTAP
row,Compound,Ki [nM]
1,CC[C@H]1CN(Cc2c[nH]c3c(N)ncnc23)C[C@@H]1O,0.7
2,C=CC[C@H]1CN(Cc2c[nH]c3c(N)ncnc23)C[C@@H]1O (racemic),3
3,Nc1ncnc2c(CN3C[C@H](C4CC4)[C@@H](O)C3)c[nH]c12 (racemic),2.1
4,C=C[C@H]1CN(Cc2c[nH]c3c(N)ncnc23)C[C@@H]1O (racemic),3.2
5,C#C[C@H]1CN(Cc2c[nH]c3c(N)ncnc23)C[C@@H]1O (racemic),31
6,CC[C@H]1CN(Cc2c[nH]c3c(N)ncnc23)C[C@H]1O (racemic),34
7,CC(C)C[C@H]1CN(Cc2c[nH]c3c(N)ncnc23)C[C@@H]1O (racemic),1.7
8,Nc1ncnc2c(CN3C[C@H](C4CCCC4)[C@@H](O)C3)c[nH]c12 (racemic),2.6
9,Nc1ncnc2c(CN3C[C@H](CC4CCCCC4)[C@@H](O)C3)c[nH]c12 (racemic),14
10,Nc1ncnc2c(CN3C[C@H](c4ccccc4)[C@@H](O)C3)c[nH]c12 (racemic),8
11,Nc1ncnc2c(CN3C[C@H](O)[C@@H](n4ccnn4)C3)c[nH]c12 (racemic),59
12,Nc1ncnc2c(CN3C[C@H](CCCSCc4ccccc4)[C@@H](O)C3)c[nH]c12 (racemic),71
